Our source for the RP-LC retention time values is the METLIN SMRT retention time set (Domingo-Almenara et al. 2019).

This data set can be described thus: gradient 5% acetonitrile 3 min, to 50% in 2 min, to 85% in 15 min, held 3 min, 100 µL/min. The settings on record: column: Zorbax Extend-C18 2.1 x 50 mm; eluents: water / acetonitrile, 0.1% formic acid. A digest of the protocol:
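Data were gathered over 3 months by HPLC coupled to a quadrupole time-of-flight mass spectrometer, operated in positive and negative ionization mode. Mixtures of ~100 pure standards ran on a Zorbax Extend-C18 column (2.1 × 50 mm, 1.8 μm) at 100 μL/min, with water and acetonitrile each containing 0.1% formic acid and dead and dwell volumes of 40 μL and 900 μL. Retention time was read from adduct peaks picked by computer and checked manually.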
Compound `CCn1c(=O)oc2cc(-c3noc(-c4cc(F)ccc4F)n3)ccc21` gave an RP-LC retention time of 1100 s. In turn, `Cc1ccc(C(=O)N2CCCCC2c2nc(-c3ccncc3)no2)s1` (centres undefined) displayed an RP-LC retention time of 904 s. With `Nc1nc(N2CCOCC2)ncc1C(=O)NCc1ccccc1F` the figure was 626 s; with `Cc1ccc(NC(=O)Cn2c(=O)n(-c3ccc(F)cc3)c(=O)c3c2cc(C)n3C)cc1`, 800 s. For `Cn1nnnc1C1CCCN(C(=O)C2CCC2)C1` (centres undefined), the RP-LC retention time stood at 636 s. In the case of `O=C(c1ccc2c(c1)OCO2)N1CCCC1c1nc(-c2cccc(C(F)(F)F)c2)no1` (centres undefined), the RP-LC retention time came to 1080 s.

The compound `COC(=O)c1c(-c2cccc(Cl)c2)noc1NCc1ccco1` registered an RP-LC retention time of 1060 s. `Cc1cc(=O)n2nc(N3CCCC(C(=O)N4CCC(Cc5ccccc5)CC4)C3)sc2n1` (centres undefined) showed an RP-LC retention time of 726 s. `CCS(=O)(=O)N1CC(CC#N)(n2cc(-c3ncnc4[nH]ccc34)cn2)C1` showed an RP-LC retention time of 637 s. The result for `CN1C(=O)C2CCCCN2c2ccc(C(=O)N3CCC4(CC3)OCCO4)cc21` (centres undefined) reads 750 s; that for `Cc1nc(CSc2cc(C)c3ccccc3n2)cs1`, 969 s; that for `O=C(NCCCN1CCOCC1)c1ccc2ccnc(N3CCN(c4ccccc4)CC3)c2c1`, 586 s.

In turn, `Cn1c(C2CCCN(S(C)(=O)=O)C2)nn(CC(=O)NC2CCCCC2)c1=O` (centres undefined) yielded an RP-LC retention time of 606 s. The result for `CC(C)C(=O)N1CCCn2nc(-c3cccnc3)cc2C1` reads 579 s. With `Cc1noc(C)c1S(=O)(=O)NCCn1c(C)cnc1-c1ccccc1` the figure was 616 s; with `Cc1nnc(NC(=O)CSc2nnc(NC(=O)Nc3cccs3)s2)s1`, 634 s. With `COC(=O)c1cc(S(=O)(=O)N2CCCC2C(=O)Nc2cccc3c2CCCC3)cn1C` (centres undefined) the figure was 1020 s. Turning to `CCC(=O)N1CCc2c(sc3ncnc(N4CCc5ccccc54)c23)C1`, the RP-LC retention time is 734 s. The result for `CN(C)C(=O)c1ccc2c(c1)nc(CN(C)C(=O)Nc1ccc(Br)cc1)n2C` reads 628 s.

For the compound `CCCCNC(=O)Cc1c(C)n(C)c2nc(-c3ccccc3)nn2c1=O`, the RP-LC retention time came to 665 s. With `Cc1nn2c(CNS(=O)(=O)Cc3ccccc3Cl)c(-c3ccccc3)nc2s1` the figure was 919 s. `CCOC(=O)c1c(CN2CCCC2)n(C)c2cc(-c3ccncc3)c3c(c12)CN(C)CO3` yielded an RP-LC retention time of 730 s.

`CNC(=O)c1cn(-c2ccc(SCC(=O)NCc3ccc4c(c3)OCO4)nn2)cn1` returned an RP-LC retention time of 642 s. The result for `CNC(=O)CSc1nnc(N2CCN(C(=O)c3cc(=O)c4ccccc4o3)CC2)s1` reads 599 s; that for `CC(NC(=O)c1ccccn1)C(=O)Nc1nc2ccccc2[nH]1` (centres undefined), 608 s; that for `CCOC(=O)c1cnc2nc(C)ccc2c1Nc1ccc(Cl)cc1`, 752 s.

In turn, `COc1ccc(-n2cc(C(=O)OCC(=O)OC(C)C)c3ccccc3c2=O)cc1` had an RP-LC retention time of 1060 s. In turn, `Cc1ccc(-c2csc(NC(=O)Cc3csc(-c4ccccc4)n3)n2)cc1C` returned an RP-LC retention time of 1230 s. With `COc1ccc(Cn2nnc3cc(C(=O)NCC4CCCO4)ccc32)cc1` (centres undefined) the figure was 733 s; with `CC(C)CNC(=O)c1ccc2c(c1)Sc1ncccc1C(=O)N2C(C)C`, 805 s; with `CC(C)CC(=O)N1CCc2c(c(C(=O)N3CCCC(C(=O)Nc4ccccc4)C3)nn2C)C1` (centres undefined), 747 s. The result for `CCc1ccccc1NC(=O)N1CCC(N(CCC(C)C)C2CCOCC2)CC1` reads 665 s. With `CCOc1ccccc1C(=O)NC1CCN(C(=O)c2cn[nH]c2-c2ccc(F)cc2)CC1` the figure was 683 s; with `CCc1ccc(Oc2cc(N3CCC(C(=O)NCc4ccc(C)cc4)CC3)ncn2)cc1`, 1050 s; with `Cn1c(C(=O)N(CCc2ccccc2)Cc2ccccc2)cc2c(=O)n3ccccc3nc21`, 1030 s.

Consider `Cc1nnc2c(S(=O)(=O)N(Cc3ccccc3)c3cc(F)cc(F)c3)cccn12`, for which the RP-LC retention time came to 865 s. Regarding `CCn1cc(S(=O)(=O)N2CCCn3nc(-c4ccncc4)cc3C2)cn1`, the RP-LC retention time was 577 s. As to `CCCOc1ccc(CN2C[C@@H](CO)[C@H](c3ccncc3)C2)cc1`, the RP-LC retention time was determined as 575 s.

Take `O=C(CSc1ccc(S(=O)(=O)C2CCCCC2)nn1)NCc1cc(F)cc(F)c1`: the RP-LC retention time was 833 s. In turn, `Cc1nc(C)c(-c2cc(C(=O)N3CCN(c4ccc(F)cc4)CC3)n[nH]2)s1` came in with an RP-LC retention time of 690 s. With `CCNC(=O)C1CCCN(c2nc3ncn(CC(=O)Nc4ccc(C)c(Cl)c4)c(=O)c3s2)C1` (centres undefined) the figure was 738 s; with `CC1=C(C(=O)OCCC#N)C(c2ccccc2Cl)NC(=O)N1` (centres undefined), 668 s. The result for `COc1cccc(Cn2c(C)c(CNCc3cccnc3)c(C(=O)O)c2C)c1` reads 625 s; that for `CC(C)NC(=O)NCc1ccc2c(c1)N(C(=O)c1ccccc1)C(C)C2` (centres undefined), 778 s.

With `Cc1cc(Cl)ccc1S(=O)(=O)N1CCC(OC2CCN(c3ccccc3)C2=O)CC1` (centres undefined), the RP-LC retention time turned out to be 1080 s. With `Cc1ccc(-c2nc3cccc(C)n3c2Nc2ccccc2)cc1` the figure was 741 s; with `Cc1ccccc1OCC(=O)Nc1nc(-c2ccccc2)cs1`, 1110 s; with `O=C(NCc1cccnc1)c1nnc(-c2ccc(S(=O)(=O)N3CCCC3)cc2)o1`, 616 s. In the case of `COc1ccc(NS(=O)(=O)c2c(C)sc(C)c2-c2cc(C(F)(F)F)on2)cc1OC`, the RP-LC retention time was found to be 1020 s.

With `CCc1noc(-c2cccnc2N2CCCN(Cc3ccccc3Cl)CC2)n1`, the RP-LC retention time came to 679 s.

The compound `Cn1ncc2c(N3CCSCC3)nc(C(=O)NCc3ccccn3)nc21` showed an RP-LC retention time of 592 s. The result for `COc1ccc(NS(=O)(=O)c2ccc(-c3nnc(C4CCC4)o3)o2)cc1Cl` reads 936 s. The result for `COc1ccc(-c2ncc3c(n2)CCN(C(=O)c2ccc(Br)cc2)C3)cc1` reads 1000 s. With `O=C(N[C@@H]1CN(Cc2ccc(C(F)(F)F)cc2)CC[C@@H]1CO)C1CC1`, the RP-LC retention time is 614 s. With `Cc1ccc(NC(=O)Nc2c(-c3ccc(F)cc3)nc3ccccn23)cc1` the figure was 692 s. The result for `COc1ccc(-c2nc(NCCCN3CCOCC3)c3ccccc3n2)cc1` reads 557 s; that for `Cc1cc(C)c(-c2csc(NC(=O)c3ccc(S(=O)(=O)N4CCOCC4)cc3)n2)c(C)c1`, 1110 s.

`Cc1noc2nc(CCC(=O)NCc3ccccc3F)nc(N3CCCC3)c12` gave an RP-LC retention time of 767 s. The result for `COc1ccc(-c2nnc(-c3ccccc3)o2)cc1S(=O)(=O)Nc1cccnc1` reads 725 s; that for `COc1ccccc1-c1cc2c(=O)n(Cc3nc(-c4ccccc4)oc3C)ccn2n1`, 1120 s; that for `O=C(c1ccco1)N1CCN(C(=O)C2CCN(c3ccc(N4CCCCC4)nn3)CC2)CC1`, 607 s. `O=C(c1n[nH]c(=O)c2ccccc12)N1C[C@H]2C[C@H](C1)[C@H]1CCCC(=O)N1C2` gave an RP-LC retention time of 598 s. The result for `O=c1oc(-c2ccccc2)c(-c2ccccc2)c2ccccc12` reads 1030 s. `CN1CCN(CCNC(=O)CCCN2C(=O)C(c3ccccc3)Oc3cccnc32)CC1` (centres undefined): the RP-LC retention time is 605 s. The result for `Cc1ccc(-c2nc3ccc(C)cn3c2Nc2ccc3c(c2)OCO3)cc1` reads 725 s; that for `COc1cc(NC(=O)CN2CCN(Cc3ccccc3)C(=O)C2=O)cc(OC)c1OC`, 669 s.

`CC(=O)N1c2ccc(S(=O)(=O)N3CCCCCC3)cc2CC1C(=O)NC1CCCCCC1` (centres undefined) had an RP-LC retention time of 959 s. The result for `CCOc1ccc(-c2csc(Nc3ccc(C)cn3)n2)cc1` reads 949 s. The result for `O=C(NCCc1ccccc1)N1CCN(C(=O)N2C[C@H]3C[C@H](C2)[C@H]2CCCC(=O)N2C3)CC1` reads 629 s; that for `CCCn1cc(CCNS(=O)(=O)c2ccc(C)cc2)c2cccnc21`, 841 s. On to `Cc1nccn1CCNC(=O)c1cc(-c2ccccc2)on1`, for which the RP-LC retention time worked out at 569 s. With `Cc1nn(CC(=O)NCc2ccco2)c(=O)c2c(C)n(-c3ccccc3)nc12` the figure was 764 s; with `CN1c2ccc(Cl)cc2C(=O)NC12CCN(C(=O)Nc1ccccc1)CC2`, 800 s. With `O=C(Nc1ccccc1)C1CC(=O)N(c2n[nH]c3cccc(F)c23)C1` (centres undefined) the figure was 730 s.

Compound `CNC(=O)C1CCN(c2nc3ccc(-c4cccc(OC)c4)nc3s2)CC1` returned an RP-LC retention time of 801 s. The result for `COc1ccccc1CC(=O)Nc1ccc(-c2nc(Cn3cc(C)cn3)c(C)o2)cc1` reads 909 s. With `COCCN1C(=O)CC[C@]2(C(=O)NCc3ccccc3Cl)CCCC[C@@H]12` the figure was 730 s; with `Cc1nc(-n2nc(C)c(CC(=O)N3CCCCCC3)c2C)sc1C`, 1010 s. With `CCOCC(=O)N1CCCC(c2nc(CNC(=O)C(C)C)cs2)C1` (centres undefined) the figure was 625 s.
